Results as given in article PMC8627988 (Molecular Metabolism, 2021).

Biological target: T1, PPARγ (Homo sapiens, UniProt P37231)
T1 sequence (P37231 235-505 limits assumed): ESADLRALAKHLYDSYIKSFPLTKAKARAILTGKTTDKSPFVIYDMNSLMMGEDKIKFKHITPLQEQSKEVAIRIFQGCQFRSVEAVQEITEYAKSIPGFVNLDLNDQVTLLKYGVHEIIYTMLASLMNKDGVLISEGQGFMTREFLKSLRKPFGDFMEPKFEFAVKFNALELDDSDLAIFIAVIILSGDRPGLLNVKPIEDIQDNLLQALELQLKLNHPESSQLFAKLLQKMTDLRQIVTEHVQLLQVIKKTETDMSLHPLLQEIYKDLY
Experiment: fluorescence polarization competition binding

Molecule `Cc1c(C)n(Cc2ccc(-c3ccccc3C(=O)O)cc2)c2ccc(C(=O)NCc3cccc(O)c3)cc12` [WO95E, 4'-((5-((3-hydroxybenzyl)carbamoyl)-2,3-dimethyl-1H-indol-1-yl)methyl)-[1,1′-biphenyl]-2-carboxylic acid] has an IC50 of roughly 11 nM.
